Measured values from patent US20220218679A1, “NOVEL COMPOUNDS AND PHARMACEUTICAL COMPOSITIONS THEREOF FOR THE TREATMENT OF INFLAMMATORY DISORDERS” (Galapagos NV, priority 2019, published 2022).
Like-named read-outs stand apart in the source and are kept apart here.

Assays:
[1] = tested on: CL097 triggered IFNα release in human whole blood; experiment: Ex vivo human IFNα release inhibition (human whole blood assay); format: cell-based; settings: Homo sapiens, CL097 2 μg/mL, 3 h 30 min at 37° C.
Excerpt: (§1) 4.10.1. Ex Vivo Human IFNα and TNFα Release Inhibition (Human Whole Blood Assay)
(§2) The aim of the assay is to evaluate the activity of compounds of the invention on the activated TLR/IRAK-4 pathway in an ex vivo human whole blood setting. Toll-like receptors (TLRs) are pattern recognition receptors that recognize a wide variety of microbial molecules, called pathogen-associated molecular patterns (PAMPs). Human TLR7 and TLR8 recognize imidazoquinoline compounds (e.g., CL097—CAS n #1026249-18-2) and single stranded RNAs as their natural ligands. Activation of TLRs leads to the production of several cytokines (e.g., IFNα, TNFα, IL-8, IL-6) by the TLR agonist-treated cells, whereas IRAK4 leads to the production of IFNα. Cytokine release is used as readout in this assay and represents a measure for the level of inhibition of the TLR/IRAK-4 pathway by the tested compound. It should be noted that in the context of the complete organism, other sources for these cytokines exist that are not dependent on the TLR/IRAK-4 pathway, such as e.g., macrophages (upon activation of the Fcγ receptor (Yan et al., 2012)) or T cells (upon activation of the T cell receptor (Brehm et al., 2005)).
(§3) 4.10.1.1. Experimental Design
(§4) Blood was collected from healthy volunteers into lithium heparin tubes by venipuncture, then gently inverted several times to prevent clotting and incubated for at least 15 min at 37° C. on a rocking mixer shaker. Then, 100 μL of blood was dispensed into polypropylene 96-well microplate and pre-incubated in duplicate with 0.3% DMSO or test compound at different concentrations (from 30 to 0.01 μM, 3-fold dilutions to get 0.3% DMSO at the final) for 15 min at 37° C. After this pre-incubation, blood was triggered with CL097 (2 μg/mL from 1 mg/mL solution in water; InvivoGen, tlrl-c97) for 3 h 30 min at 37° C. Microtubes were centrifuged at 5000×g for 10 min at 4° C. and approximately 40 μL of plasma were collected into a polystyrene 96-well plate. Plasma could be analyzed freshly, within 30 min after triggering, or frozen at −80° C. Finally, the quantification of TNFα and IFNα were performed in the plasma using AlphaLISA Kit for TNFα and IFNα according to the manufacturer's instructions and read on the Ensight (PerkinElmer).
A standard curve was created by plotting on log-log the mean […] on the y-axis against the concentration on the x-axis and a 4-parameters logistic regression (4PL) was made through the points. For each blood sample, the IFNα concentrations of the samples were determined from the fit. Data were then expressed as a percentage of inhibition (PIN) for each replicate using the formula:
With mean IFNα with CL097=mean IFNα concentration of replicate samples triggered with CL097; IFNαsample1=IFNα concentration of sample 1; mean IFNα with vehicle=mean IFNα concentration of replicate samples treated with vehicle.
(§5) Curve fitting for pIC50 determination were generated using mean PIN±sem. Graphs and pIC50 calculations were derived using Prism 5.03 software (GraphPad).

[2] = tested on: CL097 triggered TNFα release in human whole blood; experiment: Ex vivo human TNFα release inhibition (human whole blood assay); format: cell-based; settings: Homo sapiens, CL097 2 μg/mL, 3 h 30 min at 37° C.
Excerpt: as §1, §2, §3, §4
For each blood sample, the TNFα concentrations of the samples were determined from the fit. Data were then expressed a percentage of inhibition PIN for each replicate using the formula:
With mean TNFα with CL097=mean TNFα concentration of replicate samples triggered with CL097; TNFαsample1=TNFα concentration of sample 1; mean TNFα with vehicle=mean TNFα concentration of replicate samples treated with vehicle.
as §5

human IRAK-4 = target: T1, human IRAK-4 (Homo sapiens, UniProt Q9NWZ3); experiment: Phosphorylation IC50 determination for human IRAK-4 (ADP-Glo kinase assay); format: biochemical; settings: RIP140 substrate, Km ATP, read-out: IRAK4 IC50
T1 construct: purchased Carna Biosciences 09 145
T1 sequence (Q9NWZ3 1-460): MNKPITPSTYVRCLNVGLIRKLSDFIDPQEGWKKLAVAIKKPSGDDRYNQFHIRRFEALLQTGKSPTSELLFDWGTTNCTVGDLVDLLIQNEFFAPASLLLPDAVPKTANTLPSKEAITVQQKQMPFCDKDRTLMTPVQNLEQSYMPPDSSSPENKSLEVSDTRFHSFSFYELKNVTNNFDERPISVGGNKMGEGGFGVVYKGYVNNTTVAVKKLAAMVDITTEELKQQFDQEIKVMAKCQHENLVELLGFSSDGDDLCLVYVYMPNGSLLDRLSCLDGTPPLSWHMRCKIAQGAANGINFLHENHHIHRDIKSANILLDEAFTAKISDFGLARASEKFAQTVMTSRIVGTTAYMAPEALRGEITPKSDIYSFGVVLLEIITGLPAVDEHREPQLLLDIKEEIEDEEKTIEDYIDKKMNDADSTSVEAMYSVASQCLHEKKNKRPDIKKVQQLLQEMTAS
Method: 3.1. Phosphorylation IC50 Determination for Human IRAK-4
The phosphorylation of the substrate RIP140 (SEQ IDi1) by IRAK4 at Km ATP was detected with the ADP-Glo Kinase Assay (Promega, Cat #V9103), a luminescent kinase assay which measures the ADP formed from a kinase reaction. (Zegzouti et al., 2009) In a second step the kinase reaction is terminated and all the remaining ATP was depleted. In a final step the ADP was converted into ATP and this newly synthesized ATP was measured by using a luciferase/luciferin reaction with a luminescent reader. The luminescent signal positively correlated with kinase activity, in particular kinase inhibition giving a decrease of the luminescent signal.
For the semi-automated assay, the positive control (100% inhibition) was prepared by diluting 10 mM staurosporine stock mixture (20 μL) in water (3.8 mL) and DMSO (180 μL), thus resulting in a […] staurosporine solution at 1% DMSO (final concentration after further dilution in the kinase reaction).
For the automated assay, no pre-dilution of the 10 mM staurosporine stock was made. 10 mM staurosporine was spotted directly in the assay plate using acoustic dispensing and complemented with DMSO to result in a similar final concentration as mentioned above.
For the semi-automated assay, the negative control (0% inhibition) was prepared by mixing water (3.8 mL) and DMSO (200 μL) resulting in a final concentration of 1% DMSO after further dilution in the kinase reaction. For the automated assay no pre-dilution of DMSO was done. 100% DMSO was spotted directly on the assay plate.
The assay buffer solution was prepared at a concentration corresponding to 5 fold the final (most diluted) assay concentration by mixing a solution of 125 mM TRIS pH 7.5+0.05% Triton X-100+2.5 mM EGTA (5.27 mL) with 1M MgCl2 (72 μL), 1M DTT (57.6 μL), and 200 mM MnCl2 (360 μL).
For example, for the semi-automated method, the enzyme-substrate mixture was prepared by mixing water (3999 μL), assay buffer solution (1380 μL), 1 mM RIP140 (138 μL—SEQ ID1), and 200 ng/mL IRAK 4 (3.45 μL Carna Biosciences, 09 145).
For semi-automated method, the ATP mixture was prepared at a concentration corresponding to 2.5 fold the final (most diluted) assay concentration of the semi-automated method and 1.5 fold the final (most diluted) assay concentration of the automated method. For example, for the semi-automated method, the ATP mixture was prepared by mixing water (4126 μL), assay buffer solution (1380 μL), and 10 mM ATP (13.80 μL).
The assay was performed either in a semi-automated or fully automated manner. The assay volume and the incubation time of the ADP detection were different accordingly the method used.
3.1.3.1. Semi-Automated Assay
The compounds were prepared as a serial dilution of 10 point dose responses with 1/5 dilution steps in 100% DMSO starting from 2 mM highest concentration, diluted 1/20 in water. 1 μL was transferred dry to the assay plates.
On each assay plate 32 wells of each control (positive & negative) were added, followed by 2 μL enzyme-substrate mixture.
The reaction was started by adding 2 μL diluted ATP (final concentration Km ATP) on the assay plates. Plates were centrifuged for a few seconds at 1000 rpm followed by an incubation at r.t. for 120 min.
The reactions were stopped and the unconsumed ATP was depleted by adding 5 μL ADP-glo Reagent (Promega, Cat #V9103) to the reaction. The plates were quickly centrifuged at 1000 rpm and incubated at r.t. for 40 min corresponding to full ATP depletion.
The ADP was converted back to ATP and luciferase and luciferin were introduced to detect ATP by adding 10 μL kinase detection reagent (Promega, Cat #V9103) to the reaction. The plates were centrifuged for a few seconds at 1000 rpm and incubated at r.t. for a further 30 min.
Luminescent read out was performed on an Envision luminescent reader (Perkin Elmer). […]

Thermodynamic solubility = format: physicochemical; settings: 37 °C, thermodynamic from solid
Excerpt: 4.2. Thermodynamic Solubility
Poor solubility, in particular poor thermodynamic solubility can limit the absorption of compounds from the gastrointestinal tract which in turn may reduce oral bioavailability.
Thermodynamic solubility investigates the solubility of a compound as a saturated solution in equilibrium, by opposition to kinetic solubility, which measures the solubility of a metastable solution where supersaturation may occur and provide over estimation of the actual solubility of the compound. (Klein, 2010)
4.2.2. Thermodynamic Solubility—Protocol 2
In a 8 mL glass vial, 1-2 mg of dry matter of compound were added and stirred with the suitable buffers (Fed State Simulated Intestine Fluid, FeSSIF, or Fasted State Simulated Intestine Fluid, FaSSIF, or Fasted State Simulated Gastric Fluid, FaSSGF, or phosphate buffer pH 7.4) for 24 h at r.t. (for the buffer pH 7.4) or 37° C. (for the GI fluids). The concentration of the mixture was 1 mg/mL.
A volume of 1000 μL were sampled, centrifuged for 10 min at 10 000 rpm and 500 μL of the supernatant were filtered on captiva plate. The samples were diluted in duplicates in DMSO (F100 and F10). Then, a final dilution (F100) in 80/20 H2O/MeCN containing the internal standard (warfarin) was used for LCMS-MS analysis.
A standard curve was made starting from a 40,000 ng/mL stock in DMSO, freshly prepared from dry matter. Then, successive concentrations at 15,000, 11,000, 6,000, 2,500, 1,000, 375, 150 and 75 ng/mL in DMSO were prepared.
Three quality control samples were made: one of 10,000, 1,500 and 200 ng/mL in DMSO, also starting from the DMSO working stock solution at 40,000 ng/mL.
The standard curve and quality controls were diluted a F100 in 80/20 H2O/MeCN (with internal standard) and analyzed on LC/MS-MS (API4000 or API5500).
The samples were analyzed on LC-MS with a flow rate of 0.6 mL/min. The mobile phase A was 0.1% formic acid in water and the mobile phase B was 0.1% formic acid in 90% MeCN and 10% of H2O. The sample was run under positive or negative ion spray on Pursuit C18—5 μm (2.0×20 mm) column, from Agilent.
The ratio analyte/internal standard peaks areas of the standard curve were plotted in a graph and a linear or polynomial of the second order equation was used to calculate the unknown concentrations of the test compound.
Solubility values were reported in μg/mL.

IC50 [1] | IC50 [2] | IC50 (human IRAK-4) | solubility thermodynamic at 24 h (Thermodynamic solubility; Fasted State Simulated Gastric Fluid (FaSSGF), fassgf or other biorelevant, Fasted State Simulated Gastric Fluid, read-out: Tsol FaSSGF) | solubility thermodynamic at 24 h (Thermodynamic solubility; Fasted State Simulated Intestine Fluid (FaSSIF), fassif, Fasted State Simulated Intestine Fluid, read-out: Tsol FaSSIF) | SMILES
500 to 1000 nM | 0.1 to 500 nM | 5 to 10 nM | – | – | COc1cn2nc(CCS(C)(=O)=O)cc2cc1NC(=O)c1cccn(C2CC2)c1=O [Compound 6, 1-cyclopropyl-N-[6-methoxy-2-(2-methylsulfonylethyl)pyrazolo[1,5-a]pyridin-5-yl]-2-oxo-pyridine-3-carboxamide]
– | – | 0.1 to 5 nM | – | – | NC(=O)c1cn2nc(C3CCOCC3)cc2cc1NC(=O)c1cccc(C(F)(F)F)n1 [Compound 11, 2-tetrahydropyran-4-yl-5-[[6-(trifluoromethyl)pyridine-2-carbonyl]amino]pyrazolo[1,5-a]pyridine-6-carboxamide]
– | – | 5 to 10 nM | < 0.75 µg/mL | < 0.75 µg/mL | CNC(=O)c1cn2nc(C3CCOCC3)cc2cc1NC(=O)c1cccc(C(F)(F)F)n1 [Compound 14, N-methyl-2-tetrahydropyran-4-yl-5-[[6-(trifluoromethyl)pyridine-2-carbonyl]amino]pyrazolo[1,5-a]pyridine-6-carboxamide]
